{
  "source": "patent US10695337B2",
  "about": "“Piperidin-4-yl azetidine derivatives as JAK1 inhibitors” (Incyte Corporation, priority 2010, dated 2020)",
  "data": [
    {"biological_target": "human JAK1 (a.a. 837-1142)", "experiment": "In vitro JAK kinase assay (HTRF, phosphorylation of a biotinylated peptide), JAK1", "format": "biochemical", "conditions": "measured at 1 mM ATP; JAK2 IC50 / JAK1 IC50", "outline": "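N-terminal His-tagged catalytic domains, baculovirus-expressed in insect cells, phosphorylated a biotinylated peptide for 1 hr at room temperature. EDTA stop was followed by SA-APC and Eu-Py20 antibody for 40 minutes, with phosphopeptide read by HTRF.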", "values": [
      {"smiles": "N#CCC1(n2cc(-c3c(F)cnc4[nH]ccc34)cn2)CN(C2CCN(C(=O)c3ccncc3F)CC2)C1", "note": "[Example 320, {1-[1-(3-fluoroisonicotinoyl)piperidin-4-yl]-3-[4-(5-fluoro-1H-pyrrolo[2,3-b]pyridin-4-yl)-1H-pyrazol-1-yl]azetidin-3-yl}acetonitrile]", "IC50 Ratio JAK2/JAK1": 2.8},
      {"smiles": "N#CCC1(n2cc(-c3c(F)cnc4[nH]ccc34)cn2)CN(C2CCN(C(=O)c3c(F)cncc3F)CC2)C1", "note": "[Example 321, {1-[1-(3,5-difluoroisonicotinoyl)piperidin-4-yl]-3-[4-(5-fluoro-1H-pyrrolo[2,3-b]pyridin-4-yl)-1H-pyrazol-1-yl]azetidin-3-yl}acetonitrile]", "IC50 Ratio JAK2/JAK1": 3.0},
      {"smiles": "N#CCC1(n2cc(-c3c(F)cnc4[nH]ccc34)cn2)CN(C2CCN(C(=O)c3ccc(O)c(F)c3)CC2)C1", "note": "[Example 322, {1-[1-(3-fluoro-4-hydroxybenzoyl)piperidin-4-yl]-3-[4-(5-fluoro-1H-pyrrolo[2,3-b]pyridin-4-yl)-1H-pyrazol-1-yl]azetidin-3-yl}acetonitrile]", "IC50 Ratio JAK2/JAK1": 4.7},
      {"smiles": "N#CCC1(n2cc(-c3c(F)cnc4[nH]ccc34)cn2)CN(C2CCN(C(=O)c3ccc(O)cc3F)CC2)C1", "note": "[Example 323, {1-[1-(2-fluoro-4-hydroxybenzoyl)piperidin-4-yl]-3-[4-(5-fluoro-1H-pyrrolo[2,3-b]pyridin-4-yl)-1H-pyrazol-1-yl]azetidin-3-yl}acetonitrile]", "IC50 Ratio JAK2/JAK1": 5.0},
      {"smiles": "N#CCC1(n2cc(-c3c(F)cnc4[nH]ccc34)cn2)CN(C2CCN(C(=O)c3cc(C(F)(F)F)ncc3Cl)CC2)C1", "note": "[Example 326, {1-{1-[5-chloro-2-(trifluoromethyl)isonicotinoyl]piperidin-4-yl}-3-[4-(5-fluoro-1H-pyrrolo[2,3-b]pyridin-4-yl)-1H-pyrazol-1-yl]azetidin-3-yl}acetonitrile]", "IC50 Ratio JAK2/JAK1": 1.7},
      {"smiles": "N#CCC1(n2cc(-c3c(F)cnc4[nH]ccc34)cn2)CN(C2CCN(C(=O)C3CCC(F)(F)CC3)CC2)C1", "note": "[Example 327, {1-{1-[(4,4-difluorocyclohexyl)carbonyl]piperidin-4-yl}-3-[4-(5-fluoro-1H-pyrrolo[2,3-b]pyridine-4-yl)-1H-pyrazol-1-yl]azetidin-3-yl}acetonitrile]", "IC50 Ratio JAK2/JAK1": 4.1},
      {"smiles": "N#CCC1(n2cc(-c3c(F)cnc4[nH]ccc34)cn2)CN(C2CCN(C(=O)Nc3ncccc3C(F)(F)F)CC2)C1", "note": "[Example 329, 4-{3-(cyanomethyl)-3-[4-(5-fluoro-1H-pyrrolo[2,3-b]pyridin-4-yl)-1H-pyrazol-1-yl]azetidin-1-yl}-N-[3-(trifluoromethyl)pyridin-2-yl]piperidine-1-carboxamide]", "IC50 Ratio JAK2/JAK1": 4.5},
      {"smiles": "N#CCC1(n2cc(-c3c(F)cnc4[nH]ccc34)cn2)CN(C2CCN(C(=O)Nc3cnccc3C(F)(F)F)CC2)C1", "note": "[Example 330, 4-{3-(cyanomethyl)-3-[4-(5-fluoro-1H-pyrrolo[2,3-b]pyridin-4-yl)-1H-pyrazol-1-yl]azetidin-1-yl}-N-[4-(trifluoromethyl)pyridin-3-yl]piperidine-1-carboxamide]", "IC50 Ratio JAK2/JAK1": 6.7},
      {"smiles": "N#CCC1(n2cc(-c3c(C#N)cnc4[nH]ccc34)cn2)CN(C2CCN(C(=O)c3cc(F)cc(C#N)c3)CC2)C1", "note": "[Example 333, 4-{1-[1-[1-(3-cyano-5-fluorobenzoyl)piperidin-4-yl]-3-(cyanomethyl)azetidin-3-yl]-1H-pyrazol-4-yl}-1H-pyrrolo[2,3-b]pyridine-5-carbonitrile]", "IC50 Ratio JAK2/JAK1": 8.8},
      {"smiles": "N#CCC1(n2cc(-c3c(C#N)cnc4[nH]ccc34)cn2)CN(C2CCN(C(=O)c3ccc(C#N)c(F)c3)CC2)C1", "note": "[Example 334, 4-{1-[1-[1-(4-cyano-3-fluorobenzoyl)piperidin-4-yl]-3-(cyanomethyl)azetidin-3-yl]-1H-pyrazol-4-yl}-1H-pyrrolo[2,3-b]pyridine-5-carbonitrile]", "IC50 Ratio JAK2/JAK1": 4.3},
      {"smiles": "N#CCC1(n2cc(-c3c(C#N)cnc4[nH]ccc34)cn2)CN(C2CCN(C(=O)c3cc(Br)ccc3Br)CC2)C1", "note": "[Example 335]", "IC50 Ratio JAK2/JAK1": 2.4},
      {"smiles": "N#CCC1(n2cc(-c3c(C#N)cnc4[nH]ccc34)cn2)CN(C2CCN(C(=O)c3cc(Br)cc(Br)c3)CC2)C1", "note": "[Example 336]", "IC50 Ratio JAK2/JAK1": 2.9},
      {"smiles": "N#CCC1(n2cc(-c3c(C#N)cnc4[nH]ccc34)cn2)CN(C2CCN(C(=O)c3cc(C#N)ccc3C#N)CC2)C1", "note": "[Example 337, 2-[(4-{3-(cyanomethyl)-3-[4-(5-cyano-1H-pyrrolo[2,3-b]pyridin-4-yl)-1H-pyrazol-1-yl]azetidin-1-yl}piperidin-1-yl)carbonyl]terephthalonitrile]", "IC50 Ratio JAK2/JAK1": 6.0},
      {"smiles": "N#CCC1(n2cc(-c3c(C#N)cnc4[nH]ccc34)cn2)CN(C2CCN(C(=O)c3cc(C#N)cc(C#N)c3)CC2)C1", "note": "[Example 338, 5-[(4-{3-(cyanomethyl)-3-[4-(5-cyano-1H-pyrrolo[2,3-b]pyridin-4-yl)-1H-pyrazol-1-yl]azetidin-1-yl}piperidin-1-yl)carbonyl]isophthalonitrile]", "IC50 Ratio JAK2/JAK1": 7.4},
      {"smiles": "N#CCC1(n2cc(-c3c(C#N)cnc4[nH]ccc34)cn2)CN(C2CCN(C(=O)c3c(F)cc(C#N)cc3F)CC2)C1", "note": "[Example 340, 4-{1-[1-[1-(4-cyano-2,6-difluorobenzoyl)piperidin-4-yl]-3-(cyanomethyl)azetidin-3-yl]-1H-pyrazol-4-yl}-1H-pyrrolo[2,3-b]pyridine-5-carbonitrile]", "IC50 Ratio JAK2/JAK1": 1.4},
      {"smiles": "N#CCC1(n2cc(-c3c(C#N)cnc4[nH]ccc34)cn2)CN(C2CCN(C(=O)c3cc(C(F)(F)F)ncc3Cl)CC2)C1", "note": "[Example 341, 4-{1-[1-{1-[5-chloro-2-(trifluoromethyl)isonicotinoyl]piperidin-4-yl}-3-(cyanomethyl)azetidin-3-yl]-1H-pyrazol-4-yl}-1H-pyrrolo[2,3-b]pyridine-5-carbonitrile]", "IC50 Ratio JAK2/JAK1": 3.2},
      {"smiles": "N#CCC1(n2cc(-c3ncnc4[nH]ccc34)cn2)CN(C2CCN(C(=O)c3cc(C(F)(F)F)ncc3Cl)CC2)C1", "note": "[Example 342, {1-{1-[5-Chloro-2-(trifluoromethyl)isonicotinoyl]piperidin-4-yl}-3-[4-(7H-pyrrolo[2,3-d]pyrimidin-4-yl)-1H-pyrazol-1-yl]azetidin-3-yl}acetonitrile]", "IC50 Ratio JAK2/JAK1": 5.7},
      {"smiles": "N#CCC1(n2cc(-c3ncnc4[nH]ccc34)cn2)CN(C2CCN(C(=O)c3cc(C(F)(F)F)ncc3F)CC2)C1", "note": "[Example 343, {1-{1-[5-Fluoro-2-(trifluoromethyl)isonicotinoyl]piperidin-4-yl}-3[4-(7H-pyrrolo[2,3-d]pyrimidin-4-yl)-1H-pyrazol-1-yl]azetidin-3-yl}acetonitrile]", "IC50 Ratio JAK2/JAK1": 5.5},
      {"smiles": "N#CCC1(n2ccc(-c3ncnc4[nH]ccc34)c2)CN(C2CCN(C(=O)c3nc(C(F)(F)F)cs3)CC2)C1", "note": "[Example 346, [3-[3-(7H-Pyrrolo[2,3-d]pyrimidin-4-yl)-1H-pyrrol-1-yl]-1-(1-{[4-(trifluoromethyl)-1,3-thiazol-2-yl]carbonyl}piperidin-4-yl)azetidin-3-yl]acetonitrile]", "IC50 Ratio JAK2/JAK1": 5.9},
      {"smiles": "N#CCC1(n2ccc(-c3ncnc4[nH]ccc34)c2)CN(C2CCN(C(=O)c3cnc(C(F)(F)F)cn3)CC2)C1", "note": "[Example 347, [3-[3-(7H-Pyrrolo[2,3-d]pyrimidin-4-yl)-1H-pyrrol-1-yl]-1-(1-{[5-(trifluoromethyl)pyrazin-2-yl]carbonyl}piperidin-4-yl)azetidin-3-yl]acetonitrile]", "IC50 Ratio JAK2/JAK1": 2.7}
    ]}
  ]
}
